Laboratory results: patent US20260176253A1 (priority 2021, published 2026)

What was measured:
[1] = biological target: 5-HT2Cedited (accession number AAF35842.1) (Homo sapiens, UniProt P28335, I156V/I160V/N158S); experiment: biochemical; assay type: binding
[2] = biological target: human recombinant 5-HT2Cedited receptor (Homo sapiens, UniProt P28335, I156V/I160V/N158S); experiment: cell-based
human recombinant 5-HT2Cedited receptor, sequence (P28335 33-458 I156V/N158S/I160V limits assumed): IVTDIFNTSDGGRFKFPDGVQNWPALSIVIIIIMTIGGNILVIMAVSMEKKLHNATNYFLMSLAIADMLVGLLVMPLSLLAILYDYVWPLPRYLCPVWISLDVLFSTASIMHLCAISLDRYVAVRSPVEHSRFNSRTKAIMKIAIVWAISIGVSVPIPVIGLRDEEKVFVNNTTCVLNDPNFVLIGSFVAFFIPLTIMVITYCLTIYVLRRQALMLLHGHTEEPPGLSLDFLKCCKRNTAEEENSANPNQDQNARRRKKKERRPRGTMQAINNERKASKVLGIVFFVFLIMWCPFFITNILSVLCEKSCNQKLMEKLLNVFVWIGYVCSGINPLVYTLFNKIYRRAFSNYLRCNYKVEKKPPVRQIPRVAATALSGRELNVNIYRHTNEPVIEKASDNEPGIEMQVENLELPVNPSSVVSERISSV

5-HT2Cedited (accession number AAF35842.1), sequence (P28335 whole entry I156V/N158S/I160V, looked up): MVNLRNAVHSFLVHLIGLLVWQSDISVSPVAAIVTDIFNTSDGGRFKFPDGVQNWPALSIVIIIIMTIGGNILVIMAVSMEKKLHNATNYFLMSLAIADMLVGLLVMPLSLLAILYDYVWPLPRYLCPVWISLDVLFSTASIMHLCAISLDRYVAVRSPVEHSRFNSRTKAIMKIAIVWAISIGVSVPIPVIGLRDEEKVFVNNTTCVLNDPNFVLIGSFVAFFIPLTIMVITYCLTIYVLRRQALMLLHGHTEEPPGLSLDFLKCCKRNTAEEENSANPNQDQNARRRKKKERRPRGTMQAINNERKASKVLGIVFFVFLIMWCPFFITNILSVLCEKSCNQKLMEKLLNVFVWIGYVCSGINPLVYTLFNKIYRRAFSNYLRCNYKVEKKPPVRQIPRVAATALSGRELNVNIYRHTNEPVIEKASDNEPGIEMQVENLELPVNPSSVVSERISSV

Q: How did the IC50 [1] turn out when `COc1ccc2c3c([nH]c2c1)CCN1CCCC1C3` (stereo not drawn) [Compound 1, 9-methoxy-1,2,3,5,6,7,12,12a-octahydropyrrolo[1′,2′:1,7]azepino[4,5-b]indole] was run?
A: 1000 to 10000 nM

Q: What about the EC50 [2] of the same compound?
A: > 10000 nM

Q: With `COc1ccc2c3c([nH]c2c1)CC1CCCN1CC3` (stereo not drawn) [Compound 2, 9-methoxy-1,2,3,5,6,11,12,12a-octahydropyrrolo[1′,2′:1,2]azepino[4,5-b]indole] as the compound, how does the IC50 [1] read?
A: 1000 to 10000 nM

Q: And the EC50 [2]?
A: 1000 to 10000 nM

Q: What does the source list for `Cn1c2c(c3ccccc31)CCN1CCCC1C2` (stereo not drawn) [Compound 3, 11-methyl-1,2,3,5,6,11,12,12a-octahydropyrrolo[1′,2′:1,2]azepino[4,5-b]indole]?
A: IC50 [1]: 101 to 1000 nM; EC50 [2]: 101 to 1000 nM

Q: How did the IC50 [1] turn out when `c1ccc2c3c([nH]c2c1)CC1CCCN1CC3` (stereo not drawn) [Compound 4, 1,2,3,5,6,11,12,12a-octahydropyrrolo[1′,2′;1,2]azepino[4,5-b]indole] was run?
A: 101 to 1000 nM

Q: What about the EC50 [2] of the same compound?
A: 101 to 1000 nM

Q: With `COc1cccc2[nH]c3c(c12)CC1CCCN1CC3` (stereo not drawn) [Compound 5, 11-methoxy-1,2,3,5,6,7,12,12a-octahydropyrrolo[1′,2′:1,7]azepino[4,5-b]indole] as the compound, how does the IC50 [1] read?
A: 101 to 1000 nM

Q: And the EC50 [2]?
A: 1000 to 10000 nM

Q: Which results are given for `Cn1c2c(c3ccccc31)CC1CCCN1CC2` (stereo not drawn) [Compound 6, 7-methyl-1,2,3,5,6,7,12,12a-octahydropyrrolo[1′,2′:1,7]azepino[4,5-b]indole]?
A: IC50 [1]: 101 to 1000 nM; EC50 [2]: 101 to 1000 nM

Q: Which results are given for `c1ccc2c3c([nH]c2c1)CCN1CCCC1C3` (stereo not drawn) [Compound 7, 1,2,3,5,6,7,12,12a-octahydropyrrolo[1′,2′:1,7]azepino[4,5-b]indole]?
A: IC50 [1]: 101 to 1000 nM; EC50 [2]: 101 to 1000 nM

Q: `FC(F)(F)c1ccc2c3c([nH]c2c1)CC1CCCN1CC3` (stereo not drawn) [Compound 12, 9-(trifluoromethyl)-1,2,3,5,6,11,12,12a-octahydropyrrolo[1′,2′:1,2]azepino[4,5-b]indole] was tested. Which IC50 [1] did it give?
A: 1000 to 10000 nM

Q: And the EC50 [2]?
A: > 10000 nM

Q: Which results are given for `FC(F)(F)Oc1ccc2c3c([nH]c2c1)CC1CCCN1CC3` (stereo not drawn) [Compound 13, 9-(trifluoromethoxy)-1,2,3,5,6,11,12,12a-octahydropyrrolo[1′,2′;1,2]azepino[4,5-b]indole]?
A: IC50 [1]: 1000 to 10000 nM; EC50 [2]: > 10000 nM

Q: What does the source list for `COc1ccc2c3c([nH]c2c1)C[C@@H]1CCCN1CC3` [Compound 17, (S)-9-methoxy-1,2,3,5,6,11,12,12a-octahydropyrrolo[1′,2′:1,2]azepino[4,5-b]indole]?
A: IC50 [1]: 1000 to 10000 nM; EC50 [2]: > 10000 nM

Q: `COc1ccc2c3c([nH]c2c1)C[C@H]1CCCN1CC3` [Compound 18, (R)-9-methoxy-1,2,3,5,6,11,12,12a-octahydropyrrolo[1′,2′:1,2]azepino[4,5-b]indole] was tested. Which IC50 [1] did it give?
A: 1000 to 10000 nM

Q: What about the EC50 [2] of the same compound?
A: > 10000 nM

Q: `c1ccc2c3c([nH]c2c1)C[C@@H]1CCCN1CC3` [Compound 19, (S)-1,2,3,5,6,11,12,12a-octahydropyrrolo[1′,2′:1,2]azepino[4,5-b]indole] was tested. Which IC50 [1] did it give?
A: 101 to 1000 nM

Q: What about the EC50 [2] of the same compound?
A: 101 to 1000 nM

Q: Which IC50 [1] does the source give for `c1ccc2c3c([nH]c2c1)C[C@H]1CCCN1CC3` [Compound 20, (R)-1,2,3,5,6,11,12,12a-octahydropyrrolo[1′,2′:1,2]azepino[4,5-b]indole] here?
A: 101 to 1000 nM

Q: And the EC50 [2]?
A: 10 to 100 nM

Q: Which IC50 [1] does the source give for `FC(F)(F)c1cccc2[nH]c3c(c12)CCN1CCCC1C3` (stereo not drawn) [Compound 21, 7-(trifluoromethyl)-1,2,3,5,6,11,12,12a-octahydropyrrolo[1′,2′:1,2]azepino[4,5-b]indole] here?
A: 101 to 1000 nM

Q: What about the EC50 [2] of the same compound?
A: 101 to 1000 nM

Q: How did the IC50 [1] turn out when `c1ccc2c3c([nH]c2c1)CCN1CCC[C@@H]1C3` [Compound 22, (R)-1,2,3,5,6,7,12,12a-octahydropyrrolo[1′,2′:1,7]azepino[4,5-b]indole] was run?
A: 101 to 1000 nM

Q: And the EC50 [2]?
A: 101 to 1000 nM

Q: For `c1ccc2c3c([nH]c2c1)CCN1CCC[C@H]1C3` [Compound 23, (S)-1,2,3,5,6,7,12,12a-octahydropyrrolo[1′,2′:1,7]azepino[4,5-b]indole], which IC50 [1] is on record?
A: 101 to 1000 nM

Q: What about the EC50 [2] of the same compound?
A: 101 to 1000 nM

Q: Which results are given for `COc1ccc2c3c([nH]c2c1)CCN1CCC[C@@H]1C3` [Compound 24, (R)-9-methoxy-1,2,3,5,6,7,12,12a-octahydropyrrolo[1′,2′:1,7]azepino[4,5-b]indole]?
A: IC50 [1]: 1000 to 10000 nM; EC50 [2]: 1000 to 10000 nM

Q: `COc1ccc2c3c([nH]c2c1)CCN1CCC[C@H]1C3` [Compound 25, (S)-9-methoxy-1,2,3,5,6,7,12,12a-octahydropyrrolo[1′,2′:1,7]azepino[4,5-b]indole] was tested. Which IC50 [1] did it give?
A: 1000 to 10000 nM

Q: What about the EC50 [2] of the same compound?
A: 1000 to 10000 nM

Q: `COc1cccc2[nH]c3c(c12)C[C@H]1CCCN1CC3` [Compound 26, (R)-11-methoxy-1,2,3,5,6,7,12,12a-octahydropyrrolo[1′,2′:1,7]azepino[4,5-b]indole] was tested. Which IC50 [1] did it give?
A: 10 to 100 nM

Q: And the EC50 [2]?
A: 10 to 100 nM

Q: Which IC50 [1] does the source give for `COc1cccc2[nH]c3c(c12)C[C@@H]1CCCN1CC3` [Compound 27, (S)-11-methoxy-1,2,3,5,6,7,12,12a-octahydropyrrolo[1′,2′:1,7]azepino[4,5-b]indole] here?
A: 101 to 1000 nM

Q: What about the EC50 [2] of the same compound?
A: 101 to 1000 nM

Q: Which IC50 [1] does the source give for `FC(F)(F)c1cccc2[nH]c3c(c12)CC1CCCN1CC3` (stereo not drawn) [Compound 28, 11-(trifluoromethyl)-1,2,3,5,6,7,12,12a-octahydropyrrolo[1′,2′:1,7]azepino[4,5-b]indole] here?
A: 10 to 100 nM

Q: And the EC50 [2]?
A: 101 to 1000 nM
